In patent publication US12310955B2 (priority 2020, dated 2025) one finds IC50 data, which are given here for 5 compounds.

In the assay the test system is recombinant rabies virus 1088 strain expressing Gaussia Luciferase (1088/GLuc). Nature of the assay: microbe, parasite or virus in culture. It is filed as cell-based.

Where two headings read alike, the source gives them in different places. Some results are limits rather than exact numbers.

In the case of `COc1ccc(CN2C[C@H]3C[C@]4(C(=O)NCc5ccccc5)NC(=O)[C@H]3[C@H]2[C@H]4CC(C)C)cc1` (relative stereo) [Compound I-5, (3S*,3aR*,6S*,7R*,7aR*)-N-benzyl-7-isobutyl-1-(4-methoxybenzyl)-4-oxooctahydro-6H-3,6-methanopyrrolo[3,2-c]pyridine-6-carboxamide], the IC50 (Lyssavirus rabies, N2a, 72 h, read-out: Anti-rabies activity) was under 5 µM.
Regarding `Cc1ccc2c(CN3CC4CC5(C(=O)NCC6CCCCCC6)NC(=O)C4C3C5CC(C)C)cn(C(=O)OC(C)(C)C)c2c1` (racemic) [IF-782], the IC50 (read-out: Anti-rabies activity) was 10 to 30 µM.
Still for that read-out and setting: in the case of `Cc1ccc2c(C[C@@H]3[C@H]4C[C@H]5CN[C@@H]3[C@@]5(C(=O)NCC3CCCCCC3)N(CC(C)C)C4=O)cn(C(=O)OC(C)(C)C)c2c1` [IB-814] it was 10 to 30 µM.
Consider `NC(=O)c1nc(F)c[nH]c1=O` [Compound T-705, reference compound], for which, under “Lyssavirus rabies, N2a, 72 h, read-out: anti-rabies virus activity IC50”, the IC50 worked out at 30 µM.
`CC(C)CN1C(=O)[C@@H]2C[C@H]3CN[C@@H]([C@@H]2Cc2c[nH]c4cc(F)ccc24)[C@]31C(=O)NCC1CCCCCC1` [IB-817]: under “read-out: Anti-rabies activity”, the IC50 is 10 to 30 µM.
